Assay [1] has as its system asymmetric di-methyl PABP1 in RKO cells. Nature of the assay: RKO methylation assay: In Cell Western (ICW) for asymmetric di-methyl PABP1 (PABP1me2a). Particulars: Homo sapiens, RKO, 48 h, Cellular-based (PABP1me2a) ICW (In Cell Western) assay. The method in brief: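 In-cell western on compound-exposed RKO cells (48 hours): asymmetric di-methyl PABP1 detected by antibody at 800 nm, DNA content by DRAQ5 at 700 nm. Percent inhibition from signal ratios against DMSO (minimum) and 20 μM reference compound (maximum) wells; IC50 curves fitted from triplicates.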

The target of assay [2] is T1, Human CARM1 (PRMT4) (Homo sapiens, UniProt Q86X55).
T1 construct: Flag-CARM1-His was eluted with 200 ug/ml FLAG peptide in buffer A; made in house; host or cells: HEK 293F cells infected with recombinant baculovirus (pFastBacMam)
T1 sequence (Q86X55 1-585 isoform Q86X55-1): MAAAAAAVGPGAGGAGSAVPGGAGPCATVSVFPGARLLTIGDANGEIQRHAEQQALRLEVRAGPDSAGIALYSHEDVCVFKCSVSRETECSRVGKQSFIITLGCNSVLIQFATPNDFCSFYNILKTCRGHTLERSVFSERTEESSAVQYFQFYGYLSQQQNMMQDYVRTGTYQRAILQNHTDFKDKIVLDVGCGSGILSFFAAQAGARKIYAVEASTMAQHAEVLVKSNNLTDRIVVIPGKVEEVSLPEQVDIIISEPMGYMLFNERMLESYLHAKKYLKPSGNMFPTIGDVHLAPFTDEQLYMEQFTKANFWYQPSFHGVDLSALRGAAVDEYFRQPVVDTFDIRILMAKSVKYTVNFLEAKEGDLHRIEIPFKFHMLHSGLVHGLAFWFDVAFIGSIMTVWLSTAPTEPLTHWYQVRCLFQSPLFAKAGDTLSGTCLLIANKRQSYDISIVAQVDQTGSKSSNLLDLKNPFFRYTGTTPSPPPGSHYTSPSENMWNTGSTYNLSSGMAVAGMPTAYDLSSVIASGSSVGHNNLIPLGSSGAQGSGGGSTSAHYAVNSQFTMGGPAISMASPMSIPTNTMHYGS
Nature of the assay: CARM1 enzyme assay on peptide substrates (3H-SAM Flashplate). Particulars: Biochemical assay; CARM1 0.25 nM, 3H-SAM 30 nM, peptide 250 nM; read-out: Biochem IC50.

As a reminder, the IC50 is the concentration needed to halve the response being measured. As to `CNC[C@@H](O)COc1ccc(Cl)c(-c2nc(-c3c(C)noc3C)c(C)c(N3CC4(CCC(OCCOC)CC4)C3)n2)c1` [Example 128], the results for the IC50 in assay [1] and in assay [2] were 99 nM and 16.3 nM, respectively.
The like results for `CNC[C@@H](O)COc1ccc(Cl)c(-c2nc(-c3c(C)noc3C)c(C)c(N3Cc4cn(C)nc4C3)n2)c1` [Example 129] were, in that order, 46 nM and 7.7 nM.
As to `CNC[C@@H](O)COc1ccc(Cl)c(-c2nc(-c3c(C)noc3C)c(C)c(N3C[C@H]4C[C@@H]3CN4C(=O)OC)n2)c1` [Example 130], the half-inhibitory concentration (IC50) in assay [1] is 960 nM; in assay [2], 5.9 nM.
The like results for `CNC[C@@H](O)COc1ccc(Cl)c(-c2nc(-c3c(C)noc3C)c(C)c(N3C[C@H]4C[C@@H]3CN4CC(F)F)n2)c1` [Example 131] were, in that order, 612 nM and 9 nM.
`CNC[C@@H](O)COc1ccc(Cl)c(-c2nc(-c3c(C)noc3C)c(C)c(N3CC4(CC(OC(C)C)C4)C3)n2)c1` [Example 133]: the IC50 in assay [1] worked out at 42 nM; in assay [2], 9.9 nM.
The like results for `CNC[C@@H](O)COc1ccc(Cl)c(-c2nc(-c3c(C)noc3C)c(C)c(N3CC4(CC(OCC(F)F)C4)C3)n2)c1` [Example 134] were, in that order, 45 nM and 8.5 nM.
The matching figures for `CNC[C@@H](O)COc1ccc(Cl)c(-c2nc(-c3c(C)noc3C)c(C)c(N3Cc4cnn(C5CCOCC5)c4C3)n2)c1` [Example 135]: 93 nM and 4.6 nM.
The like results for `CNC[C@@H](O)COc1ccc(Cl)c(-c2nc(-c3c(C)noc3C)c(C)c(N3Cc4cn(C5CCOCC5)nc4C3)n2)c1` [Example 136] were, in that order, 172 nM and 5.1 nM.
Turning to `CNC[C@@H](O)COc1ccc(Cl)c(-c2nc(-c3c(C)noc3C)c(C)c(N3C[C@@H]4C[C@H]3CN4CC(F)F)n2)c1` [Example 137], the IC50 came to 311 nM in assay [1] and 8 nM in assay [2].
The like results for `CNC[C@@H](O)COc1ccc(Cl)c(-c2nc(-c3c(C)noc3C)c(C)c(-n3cc4c(n3)CN(C(=O)OC)C4)n2)c1` [Example 139] were, in that order, 131 nM and 5.2 nM.
The matching figures for `CNC[C@@H](O)COc1ccc(Cl)c(-c2nc(-c3c(C)noc3C)c(C)c(N3CC4(CC(F)C4)C3)n2)c1` [Example 140]: 241 nM and 4.2 nM.
The matching figures for `CNC[C@@H](O)COc1ccc(Cl)c(-c2nc(-c3c(C)noc3C)c(C)c(N3CC4(CC(Cl)C4)C3)n2)c1` [Example 141]: 173 nM and 3.7 nM.
With `CNC[C@@H](O)COc1ccc(Cl)c(-c2nc(-c3c(C)noc3C)c(C)c(N3Cc4cnc(C)cc4[C@@H]3C)n2)c1` [Example 142], the values for the IC50 in assay [1] and in assay [2] were 65 nM and 3.6 nM, respectively.
As to `CNC[C@@H](O)COc1ccc(Cl)c(-c2nc(-c3c(C)noc3C)c(C)c(N3Cc4cnc(N5CC(F)(F)C5)nc4C3)n2)c1` [Example 143], the values for the IC50 in assay [1] and in assay [2] were 15 nM and 2.8 nM, respectively.
The like results for `CNC[C@@H](O)COc1ccc(Cl)c(-c2nc(-c3c(C)noc3C)c(C)c(N3Cc4cnc(N5CCOCC5)nc4C3)n2)c1` [Example 144] were, in that order, 22 nM and 3.3 nM.
The like results for `CNC[C@@H](O)COc1ccc(Cl)c(-c2nc(-c3c(C)noc3C)c(C)c(N3Cc4cnc(N5CC(F)C5)nc4C3)n2)c1` [Example 145] were, in that order, 15 nM and 2 nM.
The like results for `CNC[C@@H](O)COc1ccc(Cl)c(-c2nc(-c3c(C)c(Cl)nn3C)c(C)c(N3Cc4cnc(N5CC(F)(F)C5)nc4C3)n2)c1` [Example 146] were, in that order, 26 nM and 2.7 nM.
With `CNC[C@@H](O)COc1ccc(Cl)c(-c2nc(-c3c(C)noc3C)c(C)c(N3Cc4cnc(N5CC(OC)C5)nc4C3)n2)c1` [Example 147], the IC50 was found to be 16 nM in assay [1] and 2.8 nM in assay [2].
In the case of `CNC[C@@H](O)COc1ccc(Cl)c(-c2nc(-c3c(C)noc3C)c(C)c(N3Cc4nc(C)oc4C3)n2)c1` [Example 149], the IC50 in assay [1] is 52 nM; in assay [2], 3.1 nM.
Take `CNC[C@@H](O)COc1ccc(Cl)c(-c2nc(-c3c(C)noc3C)c(C)c(N3Cc4cccnc4C3)n2)c1Cl` [Example 150]: the IC50 was 2020 nM in assay [1] and 16.2 nM in assay [2].
The matching figures for `CNC[C@@H](O)COc1ccc(Cl)c(-c2nc(-c3c(C)noc3C)c(C)c(N3C[C@H]4C[C@@H]3CN4CC(F)(F)F)n2)c1` [Example 151]: 668 nM and 12.1 nM.
The matching figures for `CNC[C@@H](O)COc1ccc(Cl)c(-c2nc(-c3c(C)c(Cl)nn3C)c(C)c(N3Cc4cnc(OC)nc4C3)n2)c1` [Example 152]: 18 nM and 1.9 nM.
The matching figures for `CNC[C@@H](O)COc1ccc(Cl)c(-c2nc(-c3c(C)c(Cl)nn3C)c(C)c(N3Cc4cnc(N5CCC5)nc4C3)n2)c1` [Example 153]: 15 nM and 1.9 nM.
`CNC[C@@H](O)COc1ccc(Cl)c(-c2nc(-c3c(C)noc3C)c(C)c(N3Cc4ncnc(OCC(F)F)c4C3)n2)c1` [Example 154]: the IC50 in assay [1] is 57 nM; in assay [2] it was 3.1 nM.
The like results for `CCOc1ncc2c(n1)CN(c1nc(-c3cc(OC[C@H](O)CNC)ccc3Cl)nc(-c3c(C)c(Cl)nn3C)c1C)C2` [Example 155] were, in that order, 18 nM and 2.4 nM.
The like results for `CNC[C@@H](O)COc1ccc(Cl)c(-c2nc(-c3c(C)c(Cl)nn3C)c(C)c(N3Cc4cnc(OCC(F)F)nc4C3)n2)c1` [Example 156] were, in that order, 31 nM and 3.5 nM.
The like results for `CCN(C)c1ncc2c(n1)CN(c1nc(-c3cc(OC[C@H](O)CNC)ccc3Cl)nc(-c3c(C)noc3C)c1C)C2` [Example 157] were, in that order, 26 nM and 2.4 nM.
On to `CNC[C@@H](O)COc1ccc(Cl)c(-c2nc(-c3c(C)noc3C)c(C)c(N3Cc4cnc(N(C)C)nc4C3)n2)c1` [Example 158], for which the results for the IC50 in assay [1] and in assay [2] were 18 nM and 2.9 nM, respectively.
The like results for `CCN(C)c1ncc2c(n1)CN(c1nc(-c3cc(OC[C@H](O)CNC)ccc3Cl)nc(-c3c(C)c(Cl)nn3C)c1C)C2` [Example 159] were, in that order, 39 nM and 2 nM.
The like results for `CNC[C@@H](O)COc1ccc(Cl)c(-c2nc(-c3c(C)noc3C)c(C)c(N3CC4(CC(C(=O)N5CC(OC)C5)C4)C3)n2)c1` [Example 162] were, in that order, 550 nM and 6.9 nM.
The like results for `CNC[C@@H](O)COc1ccc(Cl)c(-c2nc(-c3c(C)noc3C)c(C)c(N3CC4(CC(C(=O)N5CCC5)C4)C3)n2)c1` [Example 163] were, in that order, 292 nM and 6.2 nM.
`CNC[C@@H](O)COc1ccc(Cl)c(-c2nc(-c3c(C)noc3C)c(C)c(N3Cc4nccc(C)c4C3)n2)c1` [Example 164]: the IC50 in assay [1] is 55 nM; in assay [2] it was 2.2 nM.
The matching figures for `CNC[C@@H](O)COc1ccc(Cl)c(-c2nc(-c3c(C)noc3C)c(C)c(N3CC4(CCC(C(=O)N5CCOCC5)CC4)C3)n2)c1` [Example 165]: 322 nM and 5.8 nM.
In the case of `CNC[C@@H](O)COc1ccc(Cl)c(-c2nc(-c3c(C)noc3C)c(C)c(N3Cc4cnc(OC5CCOCC5)nc4C3)n2)c1` [Example 166], the IC50 in assay [1] came to 49 nM; in assay [2] it was 5.1 nM.
The matching figures for `CNC[C@@H](O)COc1ccc(Cl)c(-c2nc(-c3c(C)noc3C)c(C)c(N3Cc4cnc(N5CCC5C)nc4C3)n2)c1` (stereo partly shown) [Example 167]: 19 nM and 1.9 nM.
The matching figures for `CNC[C@@H](O)COc1ccc(Cl)c(-c2nc(-c3c(C)c(Cl)nn3C)c(C)c(N3Cc4cnc(N(C)C)nc4C3)n2)c1` [Example 168]: 26 nM and 2.5 nM.
The like results for `CNC[C@@H](O)COc1ccc(Cl)c(-c2nc(-c3c(C)noc3C)c(C)c(N3Cc4cnc(OC)cc4C3)n2)c1` [Example 169] were, in that order, 34 nM and 2.1 nM.
For `CNC[C@@H](O)COc1ccc(Cl)c(-c2nc(-c3c(C)noc3C)c(C)c(N3Cc4ccc(OC)nc4C3)n2)c1` [Example 170], the 50% inhibitory concentration (IC50) in assay [1] turned out to be 38 nM; in assay [2], 1.9 nM.
The like results for `CCc1onc(C)c1-c1nc(-c2cc(OC[C@H](O)CNC)ccc2Cl)nc(N2CC3(CC(OC)C3)C2)c1C` [Example 171] were, in that order, 174 nM and 5.8 nM.
The matching figures for `CNC[C@@H](O)COc1ccc(Cl)c(-c2nc(-c3c(C)noc3C)c(C)c(N3CC4(CCC(OCC(F)F)CC4)C3)n2)c1` [Example 172]: 57 nM and 4.7 nM.
With `CNC[C@@H](O)COc1ccc(Cl)c(-c2nc(-c3c(C)noc3C)c(C)c(N3CC4(CCC(C(=O)N5CC(OC)C5)CC4)C3)n2)c1` [Example 173], the IC50 in assay [1] was determined as 408 nM; in assay [2], 5 nM.

The record behind these values is patent US20170305922A1, “CARM1 INHIBITORS AND USES THEREOF” (Epizyme, Inc., priority 2014, published 2017).
